Here are results for 5 molecules from patent US12042523B2, “Compositions and methods for managing or improving bone disorders, joint disorders, cartilage disorders, or a combination thereof” (Unigen, Inc., priority 2014, dated 2024).

Assay [1] concerns rhIL-1α-mediated degradation of proteoglycan in rabbit articular cartilage explants. The experiment in a line: Ex vivo glycosaminoglycans (GAG) release assay. The note with it: for % GAG release / effect on rhIL-1α-mediated degradation of PG: rhIL-1α 5 ng/ml; for % GAG release: IL-1α alone = 100. The assay is classed as cell-based. As to the method: Articular cartilage from hock joints of rabbits (2.5 kg body weight) was removed immediately after each animal was sacrificed and articular cartilage explants were obtained by following the method described by Sandy et al. (Biochem. Biophy Acta 543:36, 1978).
Briefly, after the articular surfaces were surgically exposed under sterile conditions, approximately 200-220 mg articular surfaces per joint were dissected and submerged into complete medium (DMEM, supplemented with heat inactivated 5% FBS; penicillin 100 U/ml; streptomycin 100 ug/ml). They were then rinsed several times with the complete medium and incubated for 1 to 2 days at 37° C. in a humidified 5% CO2/95% air incubator for stabilization. The complete medium was replaced with a basal medium (DMEM, supplemented with heat-inactivated 1% FBS, 10 mM HEPES, and penicillin 100 U/ml streptomycin 100 μg/ml). Approximately 30 mg cartilage pieces (2×3×0.35 mm/piece) were placed in 24-well plates and treated with given concentrations of test agents. After pretreatment for 1 h, 5 ng/ml of rhIL-1α was added to the culture medium and further incubated at 37° C. in a humidified 5% CO2/95% air incubator. The culture medium was collected 24 h later and stored at −20° C. until assay.
The amount of sulphated GAGs (e.g., released from proteoglycans) in the medium at the end of the reaction reflects the amount of articular cartilage degradation, which was determined using the commercially available 1,9-dimethy-methylene blue method according to the instructions of the manufacturer (Blyscan™ assay, Accurate Chemical and Scientific Corp., Westbury, New York).

Another assay deals with T1, BKB1 receptor (BKB1R) (Homo sapiens, UniProt P46663).
T1 construct: Membranes from human IMR-90 lung fibroblasts, stimulated with IL-1β; endogenous in cells; host or cells: human IMR-90 lung fibroblasts stimulated with IL-1β (membranes)
T1 sequence (P46663 1-353): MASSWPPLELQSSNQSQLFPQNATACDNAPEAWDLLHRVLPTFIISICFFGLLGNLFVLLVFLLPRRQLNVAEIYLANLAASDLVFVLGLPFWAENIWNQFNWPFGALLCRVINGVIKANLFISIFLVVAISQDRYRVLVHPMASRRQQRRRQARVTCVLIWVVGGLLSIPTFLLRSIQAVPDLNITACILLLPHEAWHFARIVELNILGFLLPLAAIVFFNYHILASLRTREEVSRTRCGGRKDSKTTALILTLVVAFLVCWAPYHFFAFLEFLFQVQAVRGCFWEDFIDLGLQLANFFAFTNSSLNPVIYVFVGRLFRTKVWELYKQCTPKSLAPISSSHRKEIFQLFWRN
Kind of assay: Bradykinin B1 (BKB1) radioligand binding assay. Here is the method: Bradykinin B1 (BKB1) radioligand binding assay was conducted to determine the inhibition activity of Curcuma longa OE and extract fractions on BKB1 binding to BKB1 receptor (BKB1R). Membranes from human IMR-90 lung fibroblasts, stimulated with IL-1β in modified HEPES buffer (PH=7.4), were incubated with a test sample in the presence of 0.9 nM [^3H](Des-Arg^10)-Kallidin for 60 minutes at room temperature. After incubation, membranes were filtered and washed five times with modified DPBS buffer (pH=7.4). Samples were scintillation counted to determine the amount of specifically bound to the BKB1 receptor containing membrane.
BKB1 binding assay, as described in Example 15, was used to test curcumin compound isolated from a Curcuma longa extract (Compound 11), as well as commercially available curcumin purchased from Sigma-Aldrich (C1386). Curcumin was tested at final concentrations ranging from 200 μM to 5 nM. Binding curves were plotted by non-linear regression fit (using GraphPad Prizm software). Ki values were computed using Cheng-Prusoff algorithm. In addition, inhibition of BKB2 receptor binding activity by curcumin was examined with methods similar to those described in Example 15 for the BKB1 receptor with some modifications. Bradykinin Radioligand Binding Assay (BKB2) was conducted using a standard assay under the following conditions: • 1. […] Reading: TopCount.

Turning to `CC(=O)N[C@H]1C(O)O[C@H](CO)[C@@H](O)[C@@H]1O` (stereo partly drawn) [NAG, N-Acetyl Glucosamine], 150 µg/mL produced 31.8% inhibition in assay [1] (Oryctolagus cuniculus, 150 μg/ml, individual). In addition, the “% GAG release” value in assay [1] (sample 12.5 μg/ml) is listed as 95.7%; in assay [1] (sample 25 μg/ml), 99.2%; in assay [1] (sample 50 μg/ml) it was 87.5%; in assay [1] (sample 75 μg/ml), 81.2%.

For the molecule `Oc1cc(O)cc(/C=C/c2ccc(O)cc2O)c1` [Oxyresveratrol], the “effect on rhIL-1α-mediated degradation of PG” value (from here on “effect”) in assay [1] is reported as “strong inhibitory effect”.

Turning to `OC[C@H]1O[C@@H](Oc2cc(O)cc(/C=C/c3ccc(O[C@@H]4O[C@H](CO)[C@@H](O)[C@H](O)[C@H]4O)cc3O)c2)[C@H](O)[C@@H](O)[C@@H]1O` [Mulberoside A, mulberroside A], the “effect” value in assay [1] is reported as “strong inhibitory effect”.

Take `CC(C)=CCc1c(-c2ccc(O)cc2O)oc2c3c(cc(O)c2c1=O)OC(C)(C)C=C3` [Morusin]: the “effect” value in assay [1] is listed as “strong inhibitory effect”.

Regarding `COc1cc(/C=C/C(=O)CC(=O)/C=C/c2ccc(O)c(OC)c2)ccc1O` [Curcumin], the “BKB1 versus BKB2 binding inhibition” value at BKB1 receptor (BKB1R) is “selective BKB1 antagonist”.
